Data reported in paper PMC10878751, “N-Substituted Phenylhydrazones Kill the Ring Stage of Plasmodium falciparum” (BioMed Research International, 2024).
Like-named read-outs stand apart in the source and are kept apart here.

What was measured:
MTT cytotoxicity assay = assay: MTT cytotoxicity assay
Protocol: (§1) The SYBR green and cytotoxicity assay procedure to determine the potency of the phenylhydrazones was according to [16].
(§2) Following that, 100 μl of uninfected red blood cells was put to each well. Compound, culture medium, and uninfected red blood cells were subtracted from the optical densities by running control experiments for each parameter independently alongside the main experiment. The plates were then incubated for 72 hours at 37°C in a humidified incubator with 5% O2 and CO2 before 20 μl of 2.5 mg/ml MTT (in phosphate-buffered saline) solution was added to each well, and the plate was incubated for another 2 hours. After incubation, aliquots of culture medium (150 μl) were taken and discarded from each well, and 200 μl of Triton X-100 in acidified isopropanol was added to each well to dissolve any formazan produced. The plates were then maintained at room temperature in the dark for 24 hours before the optical densities of the wells were measured using a plate reader at 570 nm. […] The CC50 values were compared to the standard values.

[1] = tested on: 3D7 chloroquine-sensitive strain of Plasmodium falciparum; assay: SYBR green antimalarial assay, 3D7 strain
Protocol: as §1
(§3) One-milligram (1 mg) powder of each compounds was weighed and transferred into dimethylsulphoxide (DMSO) (1 ml of 0.5% v/v) to yield a stock concentration of 1000 μg/ml. The stock solution was vortexed well to dissolve the compounds and later filtered through 0.2 μm pore filter unit and then stored in a -20°C freezer until use. The stock products were diluted 10-fold to obtain a working solution of 100 μg/ml. This working solution was further serially diluted […] to obtain the concentrations 100 μg/ml, 50 μg/ml, 25 μg/ml, 12.5 μg/ml, 6.25 μg/ml, 3.13 μg/ml, 1.56 μg/ml, 0.78 μg/ml, and 0.39 μg/ml.
(§4) Continuous P. falciparum asexual cultures were maintained in vitro in an atmosphere of 93% N2, 4% CO2, and 3% O2 at 37°C in complete medium (CM) (10.44 g/liter Roswell Park Memorial Institute Medium (RPMI) 1640, 5.94 g/liter N-2-hydroxyethylpiperazine-N-2-ethane sulfonic acid (HEPES), 5 g/liter AlbuMAX II, 50 mg/liter hypoxanthine, and 2.1 g/liter sodium bicarbonate). Parasites were cultured in O+ RBCs and maintained in the incubator with daily media change until a parasitemia of more than 5% ring stages was obtained. The culture was then treated with 5% sorbitol to obtain synchronized ring stage, and parasite growth was monitored for some few days by estimating percentage (%) parasitemia using Giemsa-stained slides and light microscope with 100x magnification until parasitemia of more than 5% was recorded. Parasite suspension of 2% hematocrit with 1% parasitemia was prepared using uninfected blood to make a total of 14 ml in a complete culture medium for the plating. Compound plating and SYBR green assay were according to [16].
(§5) One hundred (100) microliters of each nine dilutions (100 μg/ml, 50 μg/ml, 25 μg/ml, 12.5 μg/ml, 6.25 μg/ml, 3.13 μg/ml, 1.56 μg/ml, 0.78 μg/ml, and 0.39 μg/ml) was plated in duplicate in a 96-well coastal plate. 15 ng/ml of artesunate was serially diluted and plated alongside with the compounds as a standard antimalarial control drug. One hundred of parasite mix with 2% hematocrit and 1% parasitemia were added to each treated well starting from the 2nd well to the 10th well. One hundred microliters of parasite mix without any drug was added to the 11th well as a negative control, and the procedure was repeated for the rest of other extract/compounds. The plates were arranged in a modular chamber and gassed for 5 min with gas mixture of 5% oxygen, 5% carbon dioxide, and 90% nitrogen and then kept at 37°C for 72 h.
(§6) The plates were harvested after 72 h, and the assays were paused by adding 100 μl lysing buffer containing SYBR green to each well and was thoroughly and gently mixed to avoid production of bubbles. The plates were then incubated in the dark for 30-60 minutes before reading the assay using FLUOstar OPTIMA Fluorometer plate reader with control software version 2.20 at 470 nm and 520 nm wavelengths.
(§7) Each compound was tested in triplicate concentration that inhibits asexual Plasmodium falciparum parasite by 50% (IC50) estimated from dose-response curves by nonlinear regression analysis using GraphPad Prism version 7.0 software (GraphPad software, San Diego, CA, USA). Cytotoxicity analysis was carried out using Microsoft Excel Version 2010.

[2] = tested on: DD2 chloroquine-resistance strain; assay: SYBR green antimalarial assay, DD2 strain
Protocol: as §1, §3, §4, §5, §6, §7

[3] = tested on: uninfected red blood cells; assay: MTT cytotoxicity assay; settings: uninfected red blood cells, 72 h, MTT
Protocol: as §1, §2

[4] = Plasmodium falciparum, 3D7, 72 h, read-out: 3D7 IC50
[5] = Plasmodium falciparum, DD2, 72 h, read-out: DD2 IC50
[6] = Plasmodium falciparum, DD2, read-out: pIC50 Dd2 (converted)
[7] = Plasmodium falciparum, 3D7, read-out: pIC50 3D7 (converted)

Row | Compound | CC50 at 72 h (MTT cytotoxicity assay) [µM] | IC50 [1, 4] [µM] | SI = CC50/IC50 for 3D7 ([1]; selectivity index) | IC50 [2, 5] [µM] | IC50 [2, 6] [µM] | SI = CC50/IC50 for DD2 ([2]; selectivity index) | CC50 at 72 h (MTT cytotoxicity assay; uninfected red blood cells) [µM] | SI = CC50/IC50 for 3D7 [1] | SI = CC50/IC50 for DD2 [2] | CC50 [3] [µM] | pIC50 3D7 ([1]; calculated from in vitro IC50s, 3D7 CS strain) | IC50 ([1]; read-out: 3D7 IC50, 3D7 chloroquine-sensitive strain, ring stage, 72 h, SYBR green) [µM] | pIC50 Dd2 ([2]; calculated from in vitro IC50s, DD2 CR strain) | IC50 ([2]; read-out: DD2 IC50, DD2 chloroquine-resistant strain, ring stage, 72 h, SYBR green) [µM] | IC50 [1, 7] [µM]
1 | O=[N+]([O-])c1ccc(NN=C(c2ccccc2)c2ccccc2)c([N+](=O)[O-])c1 [PHN1, (2,4-Dinitrophenyl)-2-(diphenylmethylene) Hydrazine] | 106 | 31 ± 0.37 | 3 | 34.89 ± 0.17 | 89.1 | 3 | – | – | – | – | – | – | – | – | –
2 | C[C@H]1[C@H](OC(=O)CCC(=O)O)O[C@@H]2O[C@@]3(C)CC[C@H]4[C@H](C)CC[C@@H]1[C@@]24OO3 [Artesunate, reference compound] | – | 0.004688 ± 1.7e-05 | – | 0.005063 ± 2.3e-05 | – | – | 84.7 | >1000 | >1000 | – | – | – | – | – | –
3 | 1-Benzylidene-2-(2,4-dinitrophenyl)hydrazine [PHN5] | – | – | – | – | – | – | – | – | – | 112 | 4.25 | 19.02 ± 0.02 | 4.71 | 6.591 ± 0.06 | –
4 | COc1cc(C=NNc2ccc([N+](=O)[O-])cc2[N+](=O)[O-])ccc1O [PHN3] | 132 | 6.6 ± 0.03 | 20 | 2.415 ± 0.01 | 6.61 | 55 | – | – | – | – | – | – | – | – | 18.2
5 | O=[N+]([O-])c1ccc(NN=Cc2cccc(O)c2)c([N+](=O)[O-])c1 [PHN6, 3-(2-2(4-Dinitrophenyl) Hydrazono) Methylphenol] | 101 | 1.29 ± 0.05 | 79 | 5.12 ± 0.07 | 17 | 19 | – | – | – | – | – | – | – | – | 4.27
6 | O=[N+]([O-])c1ccc(NN=Cc2ccc(O)cc2O)c([N+](=O)[O-])c1 [PHN2, 4-(2-(2,4-Dinitrophenylhydrazono) Methyl) Benzene-1,3-diol] | 119 | 14.12 ± 0.04 | 8 | 16.2 ± 0.17 | 40.7 | 7 | – | – | – | – | – | – | – | – | 269
